Converted amounts (≈) assume the structure as drawn. The source made the active and inactive calls. The rule behind the calls is not given here.
Legend:
[1] = tested on: Bacillus subtilis; test: Antibacterial activity against Bacillus subtilis JN934392 assessed as diameter of inhibition zone at 15 microg/well by agar well diffusion method; assay type: functional; settings: read-out: DIZ
[2] = tested on: Bacillus cereus; test: Antibacterial activity against Bacillus cereus JN934390 assessed as diameter of inhibition zone at 15 microg/well by agar well diffusion method; assay type: functional; settings: read-out: DIZ
[3] = tested on: Listeria monocytogenes; test: Antibacterial activity against Listeria monocytogenes assessed as diameter of inhibition zone at 15 microg/well by agar well diffusion method; assay type: functional; settings: read-out: DIZ
[4] = tested on: Micrococcus luteus; test: Antibacterial activity against Micrococcus luteus assessed as diameter of inhibition zone at 15 microg/well by agar well diffusion method; assay type: functional; settings: read-out: DIZ
[5] = tested on: Staphylococcus aureus; test: Antibacterial activity against Staphylococcus aureus ATCC 6538 assessed as diameter of inhibition zone at 15 microg/well by agar well diffusion method; assay type: functional; settings: read-out: DIZ
[6] = tested on: Salmonella enteritidis; test: Antibacterial activity against Salmonella enterica serotype Enteritidis ATCC 43972 assessed as diameter of inhibition zone at 15 microg/well by agar well diffusion method; assay type: functional, Salmonella enterica subsp. enterica serovar Enteritidis; settings: read-out: DIZ
[7] = tested on: Klebsiella pneumoniae; test: Antibacterial activity against Klebsiella pneumoniae assessed as diameter of inhibition zone at 15 microg/well by agar well diffusion method; assay type: functional; settings: read-out: DIZ
[8] = tested on: Escherichia coli; test: Antibacterial activity against Escherichia coli ATCC 25922 assessed as diameter of inhibition zone at 15 microg/well by agar well diffusion method; assay type: functional; settings: read-out: DIZ
[9] = Antioxidant activity assessed as DPPH free radical scavenging activity incubated for 20 mins in dark; assay type: functional
[10] = Antioxidant activity assessed as DPPH free radical scavenging activity at 0.5 mg/ml incubated for 20 mins in dark (reference value: 1 to 9 %); assay type: functional
[11] = Antioxidant activity assessed as DPPH free radical scavenging activity at 1 mg/ml incubated for 20 mins in dark (reference value: 1 to 9%); assay type: functional
[12] = Antioxidant activity assessed as DPPH free radical scavenging activity at 2 mg/ml incubated for 20 mins in dark (reference value: 1 to 9%); assay type: functional
[13] = Antioxidant activity assessed as DPPH free radical scavenging activity at 2.5 mg/ml incubated for 20 mins in dark (reference value: 1 to 9%); assay type: functional
[14] = Antioxidant activity assessed as DPPH free radical scavenging activity at 3 mg/ml incubated for 20 mins in dark (reference value: 1 to 9%); assay type: functional
[15] = Antioxidant activity assessed as reduction in beta-carotene/linoleic acid bleaching activity after 2 hrs by spectrophotometric method; assay type: functional
[16] = Antioxidant activity assessed as reduction in beta-carotene/linoleic acid bleaching activity at 0.5 mg/ml after 2 hrs by spectrophotometric method (reference value: 1 to 8 %); assay type: functional; parameters: scale not given: the % may be the effect or the level left
[17] = Antioxidant activity assessed as reduction in beta-carotene/linoleic acid bleaching activity at 1 mg/ml after 2 hrs by spectrophotometric method (reference value: 1 to 8%); assay type: functional; parameters: scale not given: the % may be the effect or the level left
[18] = Antioxidant activity assessed as reduction in beta-carotene/linoleic acid bleaching activity at 2 mg/ml after 2 hrs by spectrophotometric method (reference value: 1 to 8%); assay type: functional; parameters: scale not given: the % may be the effect or the level left
[19] = Antioxidant activity assessed as reduction in beta-carotene/linoleic acid bleaching activity at 2.5 mg/ml after 2 hrs by spectrophotometric method (reference value: 1 to 8%); assay type: functional; parameters: scale not given: the % may be the effect or the level left
[20] = Antioxidant activity assessed as reduction in beta-carotene/linoleic acid bleaching activity at 3 mg/ml after 2 hrs by spectrophotometric method (reference value: 1 to 8%); assay type: functional; parameters: scale not given: the % may be the effect or the level left
[21] = Antioxidant activity assessed as ABTS radical scavenging activity incubated for 2 hrs in dark by spectrophotometric analysis; assay type: functional
[22] = Antioxidant activity assessed as ABTS radical scavenging activity at 0.5 mg/ml incubated for 2 hrs in dark by spectrophotometric analysis (reference value: 1 to 9 %); assay type: functional
[23] = Antioxidant activity assessed as ABTS radical scavenging activity at 1 mg/ml incubated for 2 hrs in dark by spectrophotometric analysis (reference value: 1 to 9%); assay type: functional
[24] = Antioxidant activity assessed as ABTS radical scavenging activity at 2 mg/ml incubated for 2 hrs in dark by spectrophotometric analysis (reference value: 1 to 9%); assay type: functional
[25] = Antioxidant activity assessed as ABTS radical scavenging activity at 2.5 mg/ml incubated for 2 hrs in dark by spectrophotometric analysis (reference value: 1 to 9%); assay type: functional
[26] = Antioxidant activity assessed as ABTS radical scavenging activity at 3 mg/ml incubated for 2 hrs in dark by spectrophotometric analysis (reference value: 1 to 9%); assay type: functional
[27] = tested on: Bacillus cereus; test: Antibacterial activity against Bacillus cereus JN934390 after 24 hrs by MTT dye based microdilution method; assay type: functional; settings: JN934390, 24 h
[28] = tested on: Listeria monocytogenes; test: Antibacterial activity against Listeria monocytogenes after 24 hrs by MTT dye based microdilution method; assay type: functional
[29] = tested on: Micrococcus luteus; test: Antibacterial activity against Micrococcus luteus after 24 hrs by MTT dye based microdilution method; assay type: functional
[30] = tested on: Staphylococcus aureus; test: Antibacterial activity against Staphylococcus aureus ATCC 6538 after 24 hrs by MTT dye based microdilution method; assay type: functional; settings: ATCC 6538, 24 h
[31] = tested on: Salmonella enteritidis; test: Antibacterial activity against Salmonella enterica serotype Enteritidis ATCC 43972 after 24 hrs by MTT dye based microdilution method; assay type: functional, Salmonella enterica subsp. enterica serovar Enteritidis; settings: ATCC 43972, 24 h
[32] = tested on: Klebsiella pneumoniae; test: Antibacterial activity against Klebsiella pneumoniae after 24 hrs by MTT dye based microdilution method; assay type: functional
[33] = tested on: Bacillus subtilis; test: Antibacterial activity against Bacillus subtilis JN934392 after 24 hrs by MTT dye based microdilution method; assay type: functional; settings: JN934392, 24 h
[34] = tested on: Bacillus subtilis; test: Antibacterial activity against Bacillus subtilis JN934392 assessed as diameter of inhibition zone at 125 mg/ml by agar well diffusion method; assay type: functional; settings: read-out: DIZ
[35] = tested on: Bacillus cereus; test: Antibacterial activity against Bacillus cereus JN934390 assessed as diameter of inhibition zone at 125 mg/ml by agar well diffusion method; assay type: functional; settings: read-out: DIZ
[36] = tested on: Listeria monocytogenes; test: Antibacterial activity against Listeria monocytogenes assessed as diameter of inhibition zone at 125 mg/ml by agar well diffusion method; assay type: functional; settings: read-out: DIZ
[37] = tested on: Micrococcus luteus; test: Antibacterial activity against Micrococcus luteus assessed as diameter of inhibition zone at 125 mg/ml by agar well diffusion method; assay type: functional; settings: read-out: DIZ
[38] = tested on: Staphylococcus aureus; test: Antibacterial activity against Staphylococcus aureus ATCC 6538 assessed as diameter of inhibition zone at 125 mg/ml by agar well diffusion method; assay type: functional; settings: read-out: DIZ
[39] = tested on: Salmonella enteritidis; test: Antibacterial activity against Salmonella enterica serotype Enteritidis ATCC 43972 assessed as diameter of inhibition zone at 125 mg/ml by agar well diffusion method; assay type: functional, Salmonella enterica subsp. enterica serovar Enteritidis; settings: read-out: DIZ
[40] = tested on: Klebsiella pneumoniae; test: Antibacterial activity against Klebsiella pneumoniae assessed as diameter of inhibition zone at 125 mg/ml by agar well diffusion method; assay type: functional; settings: read-out: DIZ
[41] = tested on: Escherichia coli; test: Antibacterial activity against Escherichia coli ATCC 25922 assessed as diameter of inhibition zone at 125 mg/ml by agar well diffusion method; assay type: functional
[42] = tested on: Bacillus subtilis; test: Bactericidal activity against Bacillus subtilis JN934392 after 48 hrs by MTT dye based microdilution method; assay type: functional; settings: JN934392, 48 h
[43] = tested on: Bacillus cereus; test: Bactericidal activity against Bacillus cereus JN934390 after 48 hrs by MTT dye based microdilution method; assay type: functional; settings: JN934390, 48 h
[44] = tested on: Listeria monocytogenes; test: Bactericidal activity against Listeria monocytogenes after 48 hrs by MTT dye based microdilution method; assay type: functional
[45] = tested on: Micrococcus luteus; test: Bactericidal activity against Micrococcus luteus after 48 hrs by MTT dye based microdilution method; assay type: functional
[46] = tested on: Staphylococcus aureus; test: Bactericidal activity against Staphylococcus aureus ATCC 6538 after 48 hrs by MTT dye based microdilution method; assay type: functional; settings: ATCC 6538, 48 h
[47] = tested on: Salmonella enteritidis; test: Bactericidal activity against Salmonella enterica serotype Enteritidis ATCC 43972 after 48 hrs by MTT dye based microdilution method; assay type: functional, Salmonella enterica subsp. enterica serovar Enteritidis; settings: ATCC 43972, 48 h
[48] = tested on: Klebsiella pneumoniae; test: Bactericidal activity against Klebsiella pneumoniae after 48 hrs by MTT dye based microdilution method; assay type: functional
[49] = tested on: Listeria monocytogenes; test: Potency index, ratio of compound DIZ to chloramphenicol DIZ for Listeria monocytogenes; assay type: functional

## O=C(N[C@H](CO)[C@H](O)c1ccc([N+](=O)[O-])cc1)C(Cl)Cl [CHLORAMPHENICOL]
[1]
  zone of inhibition at 15 µg/disc: 24 mm
[2]
  zone of inhibition at 15 µg/disc: 26 mm
[3]
  zone of inhibition at 15 µg/disc: 12 mm
[4]
  zone of inhibition at 15 µg/disc: 20 mm
[5]
  zone of inhibition at 15 µg/disc: 17 mm
[6]
  zone of inhibition at 15 µg/disc: 16 mm
[7]
  zone of inhibition at 15 µg/disc: 22 mm
[8]
  zone of inhibition at 15 µg/disc: 23.5 mm

## Cc1ccc(N2C(=O)[C@H]3[C@H](ON4[C@@H]3C(=O)N(C)[C@@]43C[C@H](C)CC[C@H]3C(C)C)C2=O)c(C)c1
[9]
  Activity: Dose-dependent effect
  IC50: 500 µg/mL (≈ 1.14 mM)
[10]
  Activity: 49.9%
[11]
  Activity: 57%
[12]
  Activity: 72%
[13]
  Activity: 77.1%
[14]
  Activity: 73.2 to 89.3%
[15]
  IC50: 430 µg/mL (≈ 0.978 mM)
[16]
  Activity: 51%
[17]
  Activity: 53.1%
[18]
  Activity: 57%
[19]
  Activity: 65.6%
[20]
  Activity: 71.3%
[21]
  IC50: 420 µg/mL (≈ 0.956 mM)
[22]
  Activity: 52.9%
[23]
  Activity: 69%
[24]
  Activity: 79.4%
[25]
  Activity: 82.6%
[26]
  Activity: 85.8%
[27]
  MIC: 3120 µg/mL (≈ 7.1 mM)
[28]
  MIC: 1560 µg/mL (≈ 3.55 mM)
[29]
  MIC: 6250 µg/mL (≈ 14.2 mM)
[30]
  MIC: 6250 µg/mL (≈ 14.2 mM)
[31]
  MIC: 3120 µg/mL (≈ 7.1 mM)
[32]
  MIC: 3120 µg/mL (≈ 7.1 mM)
[33]
  MIC: 3120 µg/mL (≈ 7.1 mM)
[34]
  zone of inhibition at 125000 µg/mL: 20.7 mm
[35]
  zone of inhibition at 125000 µg/mL: 21.7 mm
[36]
  zone of inhibition at 125000 µg/mL: 24.7 mm
[37]
  zone of inhibition at 125000 µg/mL: 9.66 mm
[38]
  zone of inhibition at 125000 µg/mL: 22 mm
[39]
  zone of inhibition at 125000 µg/mL: 20.3 mm
[40]
  zone of inhibition at 125000 µg/mL: 23 mm
[41]
  diameter of the inhibition zone (DIZ): inactive
[42]
  MBC: 12500 µg/mL (≈ 28.4 mM)
[43]
  MBC: 25000 µg/mL (≈ 56.9 mM)
[44]
  MBC: 3120 µg/mL (≈ 7.1 mM)
[45]
  MBC: 50000 µg/mL (≈ 114 mM)
[46]
  MBC: 12500 µg/mL (≈ 28.4 mM)
[47]
  MBC: 12500 µg/mL (≈ 28.4 mM)
[48]
  MBC: 6250 µg/mL (≈ 14.2 mM)
[49]
  Ratio: 2

Source: ChEMBL document CHEMBL4028834, “Stereoselective synthesis of enantiopure N-substituted pyrrolidin-2,5-dione derivatives by 1,3-dipolar cycloaddition and assessment of their in vitro antioxidant and antibacterial activities” (Bioorg Med Chem Lett, 2017)
